The text below walks through data of US10239869B2, “Sulfonamide compounds as voltage-gated sodium channel modulators” (LUPIN LIMITED, priority 2015, dated 2019).

Read-outs that look alike come from different tables or passages of the source. A value given as a limit tells only on which side of the number the result lay.

Data set [1] has as its target Nav 1.7 (Homo sapiens (Human), UniProt Q15858). Nature of the data set: Inhibition of sodium channels, Red Membrane Potential Dye FLIPR assay, veratridine depolarization. The format is cell-based. Particulars: HEK-293 cells overexpressing the channel; read-out: Nav1.7 IC50.
Data set [2] concerns the target Nav 1.5 (Homo sapiens (Human), UniProt Q14524). Described as above. The format is cell-based. The following applies: HEK-293 cells overexpressing the channel.
Where [3] appears, read: read-out: Nav1.5 IC50 (bound given in μM).

Chain of Nav 1.5 (Q14524 whole entry): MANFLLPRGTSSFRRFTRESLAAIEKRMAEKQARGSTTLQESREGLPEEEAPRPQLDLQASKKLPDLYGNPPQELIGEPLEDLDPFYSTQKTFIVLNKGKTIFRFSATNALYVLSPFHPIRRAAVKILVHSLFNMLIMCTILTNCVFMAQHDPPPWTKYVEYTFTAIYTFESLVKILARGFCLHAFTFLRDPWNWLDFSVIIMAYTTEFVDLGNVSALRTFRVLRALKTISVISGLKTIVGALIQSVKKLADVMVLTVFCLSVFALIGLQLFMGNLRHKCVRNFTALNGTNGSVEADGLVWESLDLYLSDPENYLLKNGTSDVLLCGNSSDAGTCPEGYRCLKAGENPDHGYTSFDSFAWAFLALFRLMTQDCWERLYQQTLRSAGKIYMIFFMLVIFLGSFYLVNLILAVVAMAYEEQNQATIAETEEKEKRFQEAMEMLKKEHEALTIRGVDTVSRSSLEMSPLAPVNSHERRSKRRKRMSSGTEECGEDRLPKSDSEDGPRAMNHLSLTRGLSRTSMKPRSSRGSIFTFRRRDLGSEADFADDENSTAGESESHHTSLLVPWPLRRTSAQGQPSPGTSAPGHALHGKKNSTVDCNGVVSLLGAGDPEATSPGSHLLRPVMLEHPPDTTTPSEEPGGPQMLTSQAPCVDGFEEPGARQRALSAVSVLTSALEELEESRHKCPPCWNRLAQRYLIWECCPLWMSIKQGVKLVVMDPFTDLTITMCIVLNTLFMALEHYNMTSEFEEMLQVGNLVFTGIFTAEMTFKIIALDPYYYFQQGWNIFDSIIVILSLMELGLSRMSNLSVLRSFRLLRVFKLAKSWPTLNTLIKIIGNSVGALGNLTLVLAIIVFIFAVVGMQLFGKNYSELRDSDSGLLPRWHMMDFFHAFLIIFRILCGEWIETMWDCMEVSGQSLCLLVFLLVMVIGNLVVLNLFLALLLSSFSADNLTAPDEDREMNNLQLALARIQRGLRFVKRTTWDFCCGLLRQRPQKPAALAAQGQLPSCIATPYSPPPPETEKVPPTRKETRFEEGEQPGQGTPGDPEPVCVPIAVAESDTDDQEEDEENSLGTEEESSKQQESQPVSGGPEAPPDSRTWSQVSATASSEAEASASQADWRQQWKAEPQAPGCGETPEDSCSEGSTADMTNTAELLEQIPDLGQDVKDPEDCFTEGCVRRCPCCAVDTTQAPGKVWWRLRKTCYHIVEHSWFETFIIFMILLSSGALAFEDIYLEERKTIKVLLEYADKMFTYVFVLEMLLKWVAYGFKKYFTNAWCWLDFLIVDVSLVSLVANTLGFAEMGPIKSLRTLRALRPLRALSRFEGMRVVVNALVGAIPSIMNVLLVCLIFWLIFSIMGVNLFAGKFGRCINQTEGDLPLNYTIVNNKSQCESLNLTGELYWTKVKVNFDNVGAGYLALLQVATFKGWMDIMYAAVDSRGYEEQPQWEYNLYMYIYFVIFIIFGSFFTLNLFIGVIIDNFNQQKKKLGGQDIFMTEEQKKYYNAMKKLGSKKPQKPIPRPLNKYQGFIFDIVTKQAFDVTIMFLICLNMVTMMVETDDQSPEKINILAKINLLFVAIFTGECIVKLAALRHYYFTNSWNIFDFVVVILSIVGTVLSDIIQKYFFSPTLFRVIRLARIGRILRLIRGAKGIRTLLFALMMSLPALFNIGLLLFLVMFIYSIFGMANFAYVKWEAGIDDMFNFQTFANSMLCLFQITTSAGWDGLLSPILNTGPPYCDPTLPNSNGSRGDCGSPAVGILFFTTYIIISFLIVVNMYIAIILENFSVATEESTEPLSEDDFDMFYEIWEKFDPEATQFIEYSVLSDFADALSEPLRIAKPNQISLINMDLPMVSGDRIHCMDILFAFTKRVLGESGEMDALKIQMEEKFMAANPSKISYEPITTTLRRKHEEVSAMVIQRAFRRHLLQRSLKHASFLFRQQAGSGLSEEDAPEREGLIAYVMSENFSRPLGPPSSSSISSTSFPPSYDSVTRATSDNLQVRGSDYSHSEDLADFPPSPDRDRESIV
Chain of Nav 1.7 (Q15858 whole entry): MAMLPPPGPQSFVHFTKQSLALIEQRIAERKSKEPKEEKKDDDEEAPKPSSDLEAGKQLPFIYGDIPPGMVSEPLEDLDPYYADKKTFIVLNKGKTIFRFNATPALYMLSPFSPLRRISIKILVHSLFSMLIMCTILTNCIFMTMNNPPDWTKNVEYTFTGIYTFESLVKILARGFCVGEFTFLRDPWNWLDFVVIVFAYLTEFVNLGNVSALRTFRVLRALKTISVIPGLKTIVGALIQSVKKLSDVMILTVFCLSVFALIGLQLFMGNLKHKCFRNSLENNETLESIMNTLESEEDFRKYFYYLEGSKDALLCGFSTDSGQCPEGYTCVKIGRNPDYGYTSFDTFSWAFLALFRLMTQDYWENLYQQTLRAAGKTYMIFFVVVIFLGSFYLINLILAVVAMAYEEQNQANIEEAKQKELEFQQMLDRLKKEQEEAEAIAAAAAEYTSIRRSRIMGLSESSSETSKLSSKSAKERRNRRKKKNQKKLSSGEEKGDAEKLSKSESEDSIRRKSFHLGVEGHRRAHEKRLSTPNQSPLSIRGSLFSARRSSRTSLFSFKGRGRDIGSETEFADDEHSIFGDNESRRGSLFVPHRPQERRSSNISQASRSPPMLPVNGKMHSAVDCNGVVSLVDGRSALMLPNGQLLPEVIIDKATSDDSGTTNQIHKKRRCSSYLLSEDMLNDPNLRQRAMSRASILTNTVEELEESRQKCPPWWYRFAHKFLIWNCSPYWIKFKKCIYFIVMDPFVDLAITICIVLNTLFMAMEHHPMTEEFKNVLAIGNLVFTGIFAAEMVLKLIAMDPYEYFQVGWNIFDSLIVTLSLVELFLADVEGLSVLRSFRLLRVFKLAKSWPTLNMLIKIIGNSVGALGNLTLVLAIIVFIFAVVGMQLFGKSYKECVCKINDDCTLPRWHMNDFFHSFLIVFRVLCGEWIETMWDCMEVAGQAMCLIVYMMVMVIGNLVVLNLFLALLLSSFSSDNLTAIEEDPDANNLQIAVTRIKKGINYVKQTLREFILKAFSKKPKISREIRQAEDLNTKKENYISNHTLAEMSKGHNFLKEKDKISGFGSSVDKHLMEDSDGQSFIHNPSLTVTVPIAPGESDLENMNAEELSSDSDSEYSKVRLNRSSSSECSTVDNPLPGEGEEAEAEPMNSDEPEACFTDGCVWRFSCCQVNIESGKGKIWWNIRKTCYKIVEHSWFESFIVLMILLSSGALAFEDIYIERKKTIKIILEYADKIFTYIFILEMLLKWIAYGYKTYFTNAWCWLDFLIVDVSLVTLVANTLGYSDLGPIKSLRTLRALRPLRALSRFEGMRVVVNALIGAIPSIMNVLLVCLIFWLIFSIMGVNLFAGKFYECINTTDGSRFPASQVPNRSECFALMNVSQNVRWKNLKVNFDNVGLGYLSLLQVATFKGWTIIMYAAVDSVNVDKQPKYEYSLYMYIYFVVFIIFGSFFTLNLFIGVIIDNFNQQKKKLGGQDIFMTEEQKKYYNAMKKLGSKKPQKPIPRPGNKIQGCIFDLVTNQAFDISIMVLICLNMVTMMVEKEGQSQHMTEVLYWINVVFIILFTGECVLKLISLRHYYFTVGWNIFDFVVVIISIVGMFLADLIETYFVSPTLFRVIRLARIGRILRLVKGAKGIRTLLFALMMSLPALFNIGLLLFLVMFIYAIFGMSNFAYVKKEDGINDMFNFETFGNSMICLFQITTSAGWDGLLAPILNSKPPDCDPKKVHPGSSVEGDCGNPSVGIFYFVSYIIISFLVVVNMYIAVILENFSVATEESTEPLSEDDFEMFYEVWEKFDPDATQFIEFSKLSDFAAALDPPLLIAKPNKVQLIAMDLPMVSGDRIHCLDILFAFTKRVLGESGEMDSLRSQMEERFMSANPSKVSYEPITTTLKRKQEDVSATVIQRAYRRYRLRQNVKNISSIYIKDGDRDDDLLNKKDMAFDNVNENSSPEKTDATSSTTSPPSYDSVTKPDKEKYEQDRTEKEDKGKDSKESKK

Broadly, the IC50 is the concentration needed to halve the response being measured. Turning to `CCCc1cc(C(F)(F)F)ccc1[C@@H]1CCOc2cc(S(=O)(=O)Nc3ncccn3)ccc21` [Example-238, (S&R)-4-(2-propyl-4-(trifluoromethyl)phenyl)-N-(pyrimidin-2-yl)chroman-7-sulfonamide], the IC50 in data set [1] is 1.76 µM; in data set [2] (setting [3]), over 10 µM.

On to `CCCc1cc(C(F)(F)F)ccc1[C@H]1CCOc2cc(S(=O)(=O)Nc3ncccn3)ccc21` [Example-239, (S&R)-4-(2-propyl-4-(trifluoromethyl)phenyl)-N-(pyrimidin-2-yl)chroman-7-sulfonamide], for which the IC50 in data set [1] came out at 0.124 µM. The “Nav1.5 % inhibition @ 10 μM” value in data set [2] is given as 62%.

Regarding `CCCc1cc(C(F)(F)F)ccc1[C@@H]1CCOc2cc(S(=O)(=O)Nc3ncc(F)cn3)ccc21` [Example-240, (S&R)—N-(5-fluoropyrimidin-2-yl)-4-(2-propyl-4-(trifluoromethyl)phenyl)chroman-7-sulfonamide], the IC50 in data set [1] is 2.74 µM; in data set [2] (setting [3]) it was over 10 µM.

Turning to `CCCc1cc(C(F)(F)F)ccc1[C@H]1CCOc2cc(S(=O)(=O)Nc3ncc(F)cn3)ccc21` [Example-241, (S&R)—N-(5-fluoropyrimidin-2-yl)-4-(2-propyl-4-(trifluoromethyl)phenyl)chroman-7-sulfonamide], the IC50 in data set [1] is 0.172 µM; in data set [2] (setting [3]), over 10 µM.

As to `CCCc1cc(C(F)(F)F)ccc1C1CCOc2cc(S(=O)(=O)Nc3cccnn3)ccc21` (stereo not drawn) [Example-242], the IC50 is 1.05 µM in data set [1] and 3.65 µM in data set [2] (read-out: Nav1.5 IC50).

`CCCc1cc(C(F)(F)F)ccc1C1CCOc2cc(S(=O)(=O)Nc3cccnn3)ccc21` (stereo not drawn) [Example-243]: the IC50 in data set [1] came to 0.092 µM; in data set [2] (read-out: Nav1.5 IC50), 2.41 µM.

For `CCCc1cc(C(F)(F)F)ccc1[C@@H]1CCOc2cc(S(=O)(=O)Nc3cccc(F)n3)ccc21` [Example-244, (S&R)—N-(6-fluoropyridin-2-yl)-4-(2-propyl-4-(trifluoromethyl)phenyl)chroman-7-sulfonamide], the IC50 in data set [1] stood at 0.474 µM. Moreover, the “Nav1.5 % inhibition @ 10 μM” value in data set [2] came out at 69%.

Consider `CCCc1cc(C(F)(F)F)ccc1[C@H]1CCOc2cc(S(=O)(=O)Nc3cccc(F)n3)ccc21` [Example-245, (S&R)—N-(6-fluoropyridin-2-yl)-4-(2-propyl-4-(trifluoromethyl)phenyl)chroman-7-sulfonamide], for which, in data set [1], the IC50 turned out to be 0.041 µM. The “Nav1.5 % inhibition @ 10 μM” value in data set [2] was 75%.

In the case of `O=C(O)c1ccc(-c2cc(C(F)(F)F)ccc2[C@H]2CCOc3cc(S(=O)(=O)Nc4ncc(F)cn4)ccc32)cc1` [compound 190, (S&R)-2′-(7-(N-(5-fluoropyrimidin-2-yl)sulfamoyl)chroman-4-yl)-5′-(trifluoromethyl)-[1,1′-biphenyl]-4-carboxylic acid], the IC50 in data set [1] was 0.257 µM; in data set [2] (setting [3]), over 10 µM.
